Tested on: CRBN E3 ligase
Test: Mass spectrometry of streptavidin pulldown of biotinylated ubiquitinated proteins, CRBN-BirA 293T cells with Avi-Ub or A3-Ub
Type: cell-based, human
Description: The cells were either treated or untreated with carfilzomib (0.4 μM) for 1 hour and were either treated or untreated with the CRBN-IMiD modifying agent CC-885 (1 μM) for another hour. […] As discussed above in Example 1, the GSPT1 substrate of BirA-tagged CRBN is expressed endogenously in 293T cells.
For such MS analyses, 50 μl of resuspended streptavidin beads were incubated with 1 ml of cell lysates (3 mg/ml) at 4° C. overnight. On the next day, the beads were pelleted (400×g, 1 minute), washed two times with 2% SDS (2% SDS, 25 mM Tris-HCl pH 7.5), and then washed three times with 6M urea (6M urea, 50 mM Tris-HCl pH 8). Each wash was performed by rotating the samples at room temperature for at least five minutes. Following the washes, the beads were resuspended in 90 μl of 2M urea, to which 10 μl of 0.1M TCEP (tris(2-carboxyethyl)phosphine, reducing agent) was added for a final concentration of 10 mM TCEP. The samples were agitated at 37° C. for 30 minutes to allow for protein reduction. Next, 10 μl of 0.165 M IAA, (iodoacetamide, alkylating agent) was added to a final concentration of 15 mM IAA. The samples were agitated in the dark at room temperature for 45 minutes. Thereafter, 1 μg of trypsin/LysC (Promega, Trypsin/Lys-C Mix, Mass Spec Grade, V5071) was added to each sample, and the samples were agitated for 3-4 hours at 37° C. Subsequently, 0.5 μg of trypsin/LysC (Promega, Trypsin/Lys-C Mix, Mass Spec Grade, V5071) was added to each sample, and the samples were agitated overnight at 37° C. On the next day, the supernatant containing the digested peptides was collected. The beads were washed two times with HPLC-grade water and were combined with the previously collected supernatant. Samples were centrifuged at 21,000×g for 10 minutes, and the clarified supernatant at the top was saved. Samples were acidified by the addition of 50% formic acid to a final concentration of 2%. Samples were vacuum dried (Speedvac) overnight and kept at −80° C. until ready for analysis by MS. […]
The preparation of cellular lysate was as described above for Cell Lysis, except that the RIPA buffer was supplemented with COMPLETE™ EDTA-free protease inhibitor cocktail (Roche; 04693159001; 1 tablet per 10 ml of buffer), benzonase (Millipore; E1014; 1 μl per 10 ml of buffer), 1.5 mM MgCl2, 1 mM EGTA, and 10 mM NEM (N-ethylmaleimide). For each sample, 1 ml of 3 mg/ml lysate was rotated overnight at 4° C. with 50 μl of resuspended streptavidin Sepharose beads (CYTIVA™; 17511301), which were pre-washed with RIPA lysis buffer 3 times. For all steps that required pelleting of beads, centrifugation was performed at 400×g for 1 minute. On the next day, streptavidin beads were pelleted, and the supernatant (a.k.a. flow-through) was either saved for analysis by Western blotting or was discarded.

[1] = Table 3 (head Avi-, text A3-Ub), DMSO 0
[2] = Table 3 (head Avi-, text A3-Ub), DMSO 3
[3] = Table 3 (head Avi-, text A3-Ub), DMSO 5
[4] = Table 3 (head Avi-, text A3-Ub), DMSO 6
[5] = Table 3 (head Avi-, text A3-Ub), DMSO 7
[6] = Table 3 (head Avi-, text A3-Ub), DMSO 9
[7] = Table 3 (head Avi-, text A3-Ub), DMSO 15

Cc1ccc(NC(=O)NCc2ccc3c(c2)CN(C2CCC(=O)NC2=O)C3=O)cc1Cl (stereo not drawn) [CC-885]
Most upregulated proteins in streptavidin pulldown versus DMSO (A3-Ub, triplicates, log2 FC and p-value (limma), FIG. 9): GSPT1 and GSPT2 | # of PSMs, GSPT1 (Table 2, Avi-Ub, DMSO 0): 25 | # of PSMs, GSPT2 (Table 2, Avi-Ub, DMSO 0): 13 | # of PSMs, POLR2A (Table 2, Avi-Ub, DMSO 9): 11 | # of PSMs, PSMD4 (Table 2, Avi-Ub, DMSO 10): 11 | # of PSMs, VCL (Table 2, Avi-Ub, DMSO 10): 56 | # of PSMs, SMC1A (Table 2, Avi-Ub, DMSO 12): 13 | # of PSMs, H2AFV (Table 2, Avi-Ub, DMSO 14): 14 | # of PSMs, CTNNA1 (Table 2, Avi-Ub, DMSO 15): 12 | # of PSMs, gene symbol printed as image P00007 (Table 2, Avi-Ub, DMSO 16): 18 | # of PSMs, DYNC1H1 (Table 2, Avi-Ub, DMSO 17): 13 | # of PSMs, RPS3 (Table 2, Avi-Ub, DMSO 17): 21 | # of PSMs, HSPA1B; HSPA1A (Table 2, Avi-Ub, DMSO 18): 18 | # of PSMs, HIST2H2AC (Table 2, Avi-Ub, DMSO 19): 18 | # of PSMs, UBE2K (Table 2, Avi-Ub, DMSO 19): 17 | # of PSMs, CTNNB1 (Table 2, Avi-Ub, DMSO 20): 15 | # of PSMs, HSPA8 (Table 2, Avi-Ub, DMSO 20): 13 | # of PSMs, MCCC1 (Table 2, Avi-Ub, DMSO 20): 16 | # of PSMs, PRPF8 (Table 2, Avi-Ub, DMSO 20): 19 | # of PSMs, UBE2N (Table 2, Avi-Ub, DMSO 20): 14 | # of PSMs, VCP (Table 2, Avi-Ub, DMSO 20): 11 | # of PSMs, DSP (Table 2, Avi-Ub, DMSO 21): 14 | # of PSMs, gene symbol printed as image P00006 (Table 2, Avi-Ub, DMSO 21): 13 | # of PSMs, EEF2 (Table 2, Avi-Ub, DMSO 22): 13 | # of PSMs, HSP90AB1 (Table 2, Avi-Ub, DMSO 22): 15 | # of PSMs, gene symbol printed as image P00001 (Table 2, Avi-Ub, DMSO 22): 15 | # of PSMs, gene symbol printed as image P00003 (Table 2, Avi-Ub, DMSO 22): 14 | # of PSMs, AMOT (Table 2, Avi-Ub, DMSO 23): 19 | # of PSMs, HSP90AA1 (Table 2, Avi-Ub, DMSO 24): 13 | # of PSMs, PRKDC (Table 2, Avi-Ub, DMSO 24): 17 | # of PSMs, FASN (Table 2, Avi-Ub, DMSO 28): 17 | # of PSMs, USP9X (Table 2, Avi-Ub, DMSO 32): 21 | # of PSMs, UBA1 (Table 2, Avi-Ub, DMSO 34): 31 | # of PSMs, gene symbol printed as image P00004 (Table 2, Avi-Ub, DMSO 34): 30 | # of PSMs, gene symbol printed as image P00005 (Table 2, Avi-Ub, DMSO 36): 29 | # of PSMs, UBE2O (Table 2, Avi-Ub, DMSO 37): 23 | # of PSMs, UBA6 (Table 2, Avi-Ub, DMSO 39): 37 | # of PSMs, gene symbol printed as image P00002 (Table 2, Avi-Ub, DMSO 39): 33 | # of PSMs, PCCA (Table 2, Avi-Ub, DMSO 45): 41 | # of PSMs, ACACA (Table 2, Avi-Ub, DMSO 60): 52 | # of PSMs, PC (Table 2, Avi-Ub, DMSO 116): 104 | # of PSMs, ACACB [1]: 17 | # of PSMs, GSPT1 [1]: 30 | # of PSMs, GSPT2 [1]: 20 | # of PSMs, HIST1H1D [1]: 5 | # of PSMs, VCL [1]: 9 | # of PSMs, CCDC144A [2]: 10 | # of PSMs, DDX5 [2]: 5 | # of PSMs, HIST2H2BF [3]: 5 | # of PSMs, SPEN [3]: 9 | # of PSMs, HIST2H2BE [4]: 6 | # of PSMs, THAP5 [4]: 7 | # of PSMs, gene symbol printed as image P00009 [4]: 6 | # of PSMs, CCT8 [5]: 14 | # of PSMs, EEF1A1 [5]: 6 | # of PSMs, EEF2 [5]: 5 | # of PSMs, ENO1 [5]: 6 | # of PSMs, UBE2N [5]: 6 | # of PSMs, HIST1H4A . . . [6]: 9 | # of PSMs, HSP90AB1 [6]: 9 | # of PSMs, gene symbol printed as image P00010 (Table 3 (head Avi-, text A3-Ub), DMSO 10): 11 | # of PSMs, HSP90AA1 (Table 3 (head Avi-, text A3-Ub), DMSO 14): 12 | # of PSMs, HSPA1B; HSPA1A [7]: 6 | # of PSMs, HSPA8 [7]: 10 | # of PSMs, gene symbol printed as image P00008 (Table 3 (head Avi-, text A3-Ub), DMSO 23): 17 | # of PSMs, MCCC1 (Table 3 (head Avi-, text A3-Ub), DMSO 26): 24 | # of PSMs, ACACA (Table 3 (head Avi-, text A3-Ub), DMSO 71): 75 | # of PSMs, PCCA (Table 3 (head Avi-, text A3-Ub), DMSO 106): 103 | # of PSMs, PC (Table 3 (head Avi-, text A3-Ub), DMSO 155): 167
